Read-outs that look alike come from different tables or passages of the source.
Assays:
[1] = Drug-drug interaction study with itraconazole; assay type: in vivo, humans; details: for CL/F / Kel / Vd/F / half-life: arithmetic mean ± SD; for AUC % ex / AUC from 0 to 24 h (AUC0-24) / AUC(0-t) / AUC(0-inf) / Cmax: geometric mean; for AUC from 0 to 24 h (AUC0-24) / AUC(0-t) / Vd/F / half-life / AUC(0-inf) / Cmax / Tmax: both sexes, human, plasma, oral; for Vd/F: read-out: Vz/F; for half-life: read-out: t½ (converted); for Tmax: median
Protocol: An open-label, fixed-sequence, 2-period drug-drug interaction (DDI) study was designed to evaluate the effect of multiple doses of a strong inhibitor of CYP3A4 and P-gp on the single-dose PK of etrumadenant in humans. Etrumadenant was supplied as 25 mg capsules. Itraconazole was used as the representative strong inhibitor of CYP3A4 and P-gp. It was supplied as 10 mg/mL oral solution, Sporanox® by Janssen Pharmaceuticals (or generic equivalent). Twenty (20) healthy, adult male and female (of non-childbearing potential) participants were enrolled. Screening of participants occurred within 28 days prior to the first dosing.
On Day 1 of Period 1, a single 150 mg dose of etrumadenant was orally administered under fasting conditions (i.e., at least 10 hours of fasting prior to dosing and at least 4 hours postdose). PK sampling for etrumadenant and its metabolites was taken predose and up to 120 hours postdose. There was a washout of 5 days between the etrumadenant dose in Period 1 and the first itraconazole dose in Period 2.
In Period 2, 200 mg itraconazole was orally administered twice a day (BID) on Day 1 and once a day (QD) for 9 consecutive days (on Days 2 through 10) with a single 150 mg dose of etrumadenant orally administered 1 hour after itraconazole dosing on Day 6. Itraconazole was administered under fasting conditions. On Day 6, participants fasted for at least 10 hours prior to and at least 4 hours post etrumadenant dosing. PK sampling for etrumadenant and its metabolites was taken predose and up to 120 hours after etrumadenant dosing. PK sampling for itraconazole and 1-hydroxy-itraconazole was collected on Days 5, 6, 7, 9, and 11.
Itraconazole was administered twice on the first day of Period 2 as a loading dose to accelerate CYP3A inhibition and the inhibition was then maintained by administering itraconazole 200 mg QD for 9 consecutive days. A 200 mg BID dose level is expected to provide similar inhibition to a 400 mg QD dose. Although itraconazole reaches steady state within approximately 15 days, it has been established that QD administration of 200 mg itraconazole for 3 to 5 days allows maximum CYP3A inhibition sufficient to detect a DDI. […] As such, administration of itraconazole for at least 4 days is considered sufficient in DDI studies as a CYP3A4 and P-gp inhibitor. To maintain the level of inhibition, itraconazole was administered throughout PK sampling of etrumadenant (i.e., through Day 10 of Period 2). In addition, the itraconazole oral solution was administered under fasting conditions to maximize bioavailability.
Participants were housed on Day −1 of Period 1, at the time indicated by the clinical research unit (CRU), until after the 120-hour blood draw and completion of study procedures in Period 2. Safety was monitored throughout the study by repeated clinical and laboratory evaluations. In this study, there were no discontinued participants. All participants who received at least one dose of study drug (including participants who terminated the study early) were asked to return to the CRU approximately 14 days after the last dose for follow-up procedures, and to determine if any adverse event (AE) had occurred since the last study visit. All adverse events reported in the study were mild and resolved without treatment.

A2BR = biological target: T1, A2BR (Homo sapiens, UniProt P29275); details: antagonist; has been reported; cited from earlier work
T1 sequence (P29275 1-332): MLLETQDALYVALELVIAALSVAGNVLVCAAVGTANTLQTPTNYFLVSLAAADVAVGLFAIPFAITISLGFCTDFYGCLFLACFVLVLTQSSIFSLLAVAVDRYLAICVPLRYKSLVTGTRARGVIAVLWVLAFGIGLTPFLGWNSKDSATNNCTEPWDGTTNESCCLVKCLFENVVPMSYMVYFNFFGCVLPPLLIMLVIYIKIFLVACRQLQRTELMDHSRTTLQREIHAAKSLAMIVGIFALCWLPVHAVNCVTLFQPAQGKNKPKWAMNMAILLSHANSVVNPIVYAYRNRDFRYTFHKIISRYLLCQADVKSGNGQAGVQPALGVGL

[2] = biological target: T2, breast cancer resistance protein (BCRP) (Homo sapiens, UniProt Q9UNQ0); assay: In vitro transporter substrate data (BCRP); assay type: in vitro ADME
T2 sequence (Q9UNQ0 1-655): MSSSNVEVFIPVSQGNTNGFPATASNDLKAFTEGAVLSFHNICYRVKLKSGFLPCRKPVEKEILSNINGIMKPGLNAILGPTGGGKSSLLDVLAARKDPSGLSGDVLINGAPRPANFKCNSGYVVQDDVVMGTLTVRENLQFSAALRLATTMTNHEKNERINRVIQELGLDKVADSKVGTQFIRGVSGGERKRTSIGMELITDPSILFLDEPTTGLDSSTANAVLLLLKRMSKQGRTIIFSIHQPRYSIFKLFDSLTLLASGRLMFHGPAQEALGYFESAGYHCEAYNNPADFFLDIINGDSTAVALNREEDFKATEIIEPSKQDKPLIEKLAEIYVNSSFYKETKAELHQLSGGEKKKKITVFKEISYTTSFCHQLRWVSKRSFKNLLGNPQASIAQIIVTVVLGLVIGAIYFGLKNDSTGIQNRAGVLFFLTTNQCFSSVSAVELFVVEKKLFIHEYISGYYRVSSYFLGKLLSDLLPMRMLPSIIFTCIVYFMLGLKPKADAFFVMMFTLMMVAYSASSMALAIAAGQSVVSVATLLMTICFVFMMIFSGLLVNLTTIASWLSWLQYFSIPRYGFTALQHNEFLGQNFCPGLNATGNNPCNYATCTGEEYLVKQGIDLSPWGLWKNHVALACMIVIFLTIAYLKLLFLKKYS

[3] = Etrumadenant 150 mg + Itraconazole
[4] = multiple doses of itraconazole compared to etrumadenant given alone

CL/F [1, 3]: 2.52 ± 0.842 L/h
Kel [1, 3]: 0.0255 ± 0.00605 h⁻¹
AUC % ex [1, 3]: 4.39%
CL/F ([1]; Etrumadenant Alone, 150 mg): 4.00 ± 1.12 L/h
Kel ([1]; Etrumadenant Alone, 150 mg): 0.0249 ± 0.00663 h⁻¹
AUC % ex ([1]; Etrumadenant Alone, 150 mg): 3.90%
AUC from 0 to 24 h (AUC0-24) ([1]; 150 mg, Etrumadenant Alone, 150 mg (6 × 25 mg capsules), fasting): 21600 ng·h/mL
AUC(0-t) ([1]; 150 mg, Etrumadenant Alone): 36500 ng·h/mL
AUC from 0 to 24 h (AUC0-24) ([1]; Etrumadenant 150 mg + Itraconazole 200 mg multiple doses): 30700 ng·h/mL
Vd/F [1, 3]: 100 ± 28.3 L
half-life [1, 3]: 28.7 ± 7.01 h
AUC(0-inf) [1, 3]: 62600 ng·h/mL
AUC(0-t) [1, 3]: 59400 ng·h/mL
Cmax [1, 3]: 3530 ng/mL
Tmax [1, 3]: 1.52 h
Vd/F ([1]; Etrumadenant Alone, 150 mg): 172 ± 64.8 L
half-life ([1]; Etrumadenant Alone, 150 mg): 29.9 ± 8.88 h
AUC(0-inf) ([1]; Etrumadenant Alone, 150 mg): 38600 ng·h/mL
Cmax ([1]; Etrumadenant Alone, 150 mg): 3000 ng/mL
Tmax ([1]; Etrumadenant Alone, 150 mg): 1.38 h
increase in etrumadenant AUCinf [1, 4]: ~62%
increase in etrumadenant AUClast [1, 4]: approximately 63%
increase in etrumadenant Cmax [1, 4]: ~18%
substrate of breast cancer resistance protein (BCRP) [2]: substrate
Compound: Cc1c(C#N)cccc1-c1cc(-c2cn(Cc3cccc(C(C)(C)O)n3)nn2)nc(N)n1 [Etrumadenant, 3-[2-amino-6-(1-{[6-(2-hydroxypropan-2-yl)pyridine-2-yl]methyl}-1H-1,2,3-triazol-4-yl)pyrimidin-4-yl]-2-methylbenzonitrile]
potency on A2BR (A2BR): less than 10 nM
